Results from patent publication US8962674B2 (Tokyo Institute of Technology, priority 2006, dated 2015).

First: COc1ccc(/C=C/C(=O)CC(=O)/C=C/c2ccc(O)c(OC)c2)cc1O [CU105, (1E,6E)-1-(3-hydroxy-4-methoxyphenyl)-7-(4-hydroxy-3-methoxyphenyl)hepta-1,6-diene-3,5-dione]
Second: COc1ccc(/C=C/C(=O)CC(=O)/C=C/c2ccc(N(C)C)c(OC)c2)cc1O [CU036, (1E,6E)-1-(4-dimethylamino-3-methoxyphenyl)-7-(3-hydroxy-4-methoxyphenyl)hepta-1,6-diene-3,5-dione]
The melting point of the first is higher: 78 to 85 °C for the first, 65 to 70 °C for the second.

Compared with `O=C(/C=C/c1ccc(O)cc1)CC(=O)/C=C/c1ccccc1N1CCCC1` [CU496, (1E,6E)-1-(4-hydroxyphenyl)-7-[2-(pyrrolidin-1-yl)phenyl]hepta-1,6-diene-3,5-dione], `O=C(/C=C/c1ccc(O)cc1)CC(=O)/C=C/c1cccnc1N1CCOCC1` [CU337, (1E,6E)-1-(4-hydroxyphenyl)-7-(2-morpholinopyridin-3-yl)hepta-1,6-diene-3,5-dione] is higher in melting point: 73 to 80 °C for the first, 159 to 165 °C for the second.

First: O=C(/C=C/c1ccc(O)cc1)CC(=O)/C=C/c1ccccc1-c1cccc2ccccc12 [CU528, (1E,6E)-1-(4-hydroxyphenyl)-7-[2-(naphthalen-1-yl)phenyl]hepta-1,6-diene-3,5-dione]
Second: O=C(/C=C/c1ccc(O)cc1)CC(=O)/C=C/c1cc(O)ccc1-c1cccc2ccccc12 [CU538, (1E,6E)-1-[5-hydroxy-2-(naphthalen-1-yl)phenyl]-7-(4-hydroxyphenyl)hepta-1,6-diene-3,5-dione]
The melting point of the first is lower: 95 to 101 °C for the first, 215 to 221 °C for the second.

First: COCOc1c(O)cccc1/C=C/C(=O)CC(=O)/C=C/c1ccc(O)cc1 [CU247, (1E,6E)-1-[3-hydroxy-2-(methoxymethoxy)phenyl]-7-(4-hydroxyphenyl)hepta-1,6-diene-3,5-dione]
Second: O=C(/C=C/c1ccc(O)cc1)CC(=O)/C=C/c1ccccn1 [CU233, (1E,6E)-1-(4-hydroxyphenyl)-7-(pyridin-2-yl)hepta-1,6-diene-3,5-dione]
The melting point of the first is lower: 158 to 161 °C for the first, 180 to 182 °C for the second.

First: O=C(/C=C/c1ccc(O)cc1)CC(=O)/C=C/c1cccc(Oc2ccccc2)c1 [CU214, (1E,6E)-1-(4-hydroxyphenyl)-7-(3-phenoxyphenyl)hepta-1,6-diene-3,5-dione]
Second: COc1ccc(/C=C/C(=O)CC(=O)/C=C/c2ccc(Oc3ccccc3)cc2)cc1O [CU219, (1E,6E)-1-(3-hydroxy-4-methoxyphenyl)-7-(4-phenoxyphenyl)hepta-1,6-diene-3,5-dione]
The melting point of the first is higher: 194 to 198 °C for the first, 185 to 187 °C for the second.

First: COc1cc(/C=C/C(=O)CC(=O)/C=C/c2ccc(O)c(Cl)c2)ccc1O [CU007, (1E,6E)-1-(3-chloro-4-hydroxyphenyl)-7-(4-hydroxy-3-methoxyphenyl)hepta-1,6-diene-3,5-dione]
Second: COc1ccc(O)c(/C=C/C(=O)CC(=O)/C=C/c2ccc(O)c(OC)c2)c1 [CU088, (1E,6E)-1-(2-hydroxy-5-methoxyphenyl)-7-(4-hydroxy-3-methoxyphenyl)hepta-1,6-diene-3,5-dione]
The melting point of the first is higher: 90 to 95 °C for the first, 78 to 80 °C for the second.

First: O=C(/C=C/c1ccc(O)cc1)CC(=O)/C=C/c1ccc2ccccc2c1-c1ccccc1 [CU503, (1E,6E)-1-(4-hydroxyphenyl)-7-(1-phenylnaphthalen-2-yl)hepta-1,6-diene-3,5-dione]
Second: O=C(/C=C/c1ccc(O)cc1)CC(=O)/C=C/c1cc2ccccc2o1 [CU321, (1E,6E)-1-(benzofuran-2-yl)-7-(4-hydroxyphenyl)hepta-1,6-diene-3,5-dione]
The melting point of the first is higher: 218 to 222 °C for the first, 173 to 178 °C for the second.

Compared with `COc1ccc(/C=C/C(=O)CC(=O)/C=C/c2ccc3cc[nH]c3c2)cc1O` [CU191, (1E,6E)-1-(3-hydroxy-4-methoxyphenyl)-7-(1H-indol-6-yl)hepta-1,6-diene-3,5-dione], `COc1cc(/C=C/C(=O)CC(=O)/C=C/c2ccc3[nH]ccc3c2)ccc1O` [CU188, (1E,6E)-1-(4-hydroxy-3-methoxyphenyl)-7-(1H-indol-5-yl)hepta-1,6-diene-3,5-dione] is lower in melting point: 197 to 202 °C for the first, 135 to 138 °C for the second.

First: CC(C)(C)OC(=O)N[C@H](Cc1ccccc1)C(=O)Nc1ccc(/C=C/C(=O)CC(=O)/C=C/c2ccc(O)cc2)cc1 [CU406, (1E,6E)-1-[4-((R)-2-tert-butoxycarbonylamino-3-phenylpropionylamino)phenyl]-7-(4-hydroxyphenyl)hepta-1,6-diene-3,5-dione]
Second: CN(C)CCCOc1ccc(/C=C/C(=O)CC(=O)/C=C/c2ccc(O)cc2)cc1 [CU236, (1E,6E)-1-[4-(3-dimethylaminopropoxy)phenyl]-7-(4-hydroxyphenyl)hepta-1,6-diene-3,5-dione]
The melting point of the first is lower: 113 to 120 °C for the first, 140 to 143 °C for the second.

Compared with `COc1ccc(/C=C/C(=O)CC(=O)/C=C/c2cc(OC)c(OC)c(OC)c2)cc1O` [CU205, (1E,6E)-1-(3-hydroxy-4-methoxyphenyl)-7-(3,4,5-trimethoxyphenyl)hepta-1,6-diene-3,5-dione], `COc1ccc(OC)c(/C=C/C(=O)CC(=O)/C=C/c2ccc(OC)c(O)c2)c1` [CU077, (1E,6E)-1-(2,5-dimethoxyphenyl)-7-(3-hydroxy-4-methoxyphenyl)hepta-1,6-diene-3,5-dione] is lower in melting point: 195 to 200 °C for the first, 63 to 68 °C for the second.

First: COc1cc(/C=C/C(=O)CC(=O)/C=C/c2ccc([N+](=O)[O-])c(OC)c2)ccc1O [CU051, (1E,6E)-1-(4-hydroxy-3-methoxyphenyl)-7-(3-methoxy-4-nitrophenyl)hepta-1,6-diene-3,5-dione]
Second: COc1cc(/C=C/C(=O)CC(=O)/C=C/c2c(OC)cccc2OC)ccc1O [CU103, (1E,6E)-1-(2,6-dimethoxyphenyl)-7-(4-hydroxy-3-methoxyphenyl)hepta-1,6-diene-3,5-dione]
The melting point of the first is higher: 157 to 163 °C for the first, 136 to 139 °C for the second.

First: CCN(CC)c1ccc(/C=C/C(=O)CC(=O)/C=C/c2ccc(OC)c(O)c2)c(OCC=C(C)C)c1 [CU442, (1E,6E)-1-(4-diethylamino-2-prenyloxyphenyl)-7-(3-hydroxy-4-methoxyphenyl)hepta-1,6-diene-3,5-dione]
Second: COc1ccc(/C=C/C(=O)CC(=O)/C=C/c2ccc(O)cc2O)cc1O [CU258, (1E,6E)-1-(2,4-dihydroxyphenyl)-7-(3-hydroxy-4-methoxyphenyl)hepta-1,6-diene-3,5-dione]
The melting point of the first is higher: 139 to 143 °C for the first, 104 to 109 °C for the second.

First: COCOc1ccc(OC)cc1/C=C/C(=O)CC(=O)/C=C/c1cc(OC)ccc1OCOC [CU447, (1E,6E)-1,7-bis[5-methoxy-2-(methoxymethoxy)phenyl]hepta-1,6-diene-3,5-dione]
Second: COc1ccc(/C=C/C(=O)CC(=O)/C=C/c2cccc(OC)c2O)cc1O [CU273, (1E,6E)-1-(2-hydroxy-3-methoxyphenyl)-7-(3-hydroxy-4-methoxyphenyl)hepta-1,6-diene-3,5-dione]
The melting point of the first is lower: 140 to 143 °C for the first, 155 to 157 °C for the second.

Compared with `CCN(CC)c1ccc(/C=C/C(=O)CC(=O)/C=C/c2ccc(O)cc2)c(OCc2ccc(Cl)cc2Cl)c1` [CU451, (1E,6E)-1-[2-(2,4-dichlorobenzyloxy)-4-diethylaminophenyl]-7-(4-hydroxyphenyl)hepta-1,6-diene-3,5-dione], `O=C(/C=C/c1ccc(O)cc1)CC(=O)/C=C/c1cc(Cl)cc(Cl)c1O` [CU281, (1E,6E)-1-(3,5-dichloro-2-hydroxyphenyl)-7-(4-hydroxyphenyl)hepta-1,6-diene-3,5-dione] is higher in melting point: 73 to 80 °C for the first, 199 to 201 °C for the second.

Compared with `COc1ccc(/C=C/C(=O)CC(=O)/C=C/c2cccs2)cc1O` [CU212, (1E,6E)-1-(3-hydroxy-4-methoxyphenyl)-7-(thiophen-2-yl)hepta-1,6-diene-3,5-dione], `COc1ccc(/C=C/C(=O)CC(=O)/C=C/c2cccc(O)c2)cc1O` [CU081, (1E,6E)-1-(3-hydroxy-4-methoxyphenyl)-7-(3-hydroxyphenyl)hepta-1,6-diene-3,5-dione] is higher in melting point: 128 to 133 °C for the first, 200 to 206 °C for the second.

First: O=C(/C=C/c1ccc(O)cc1)CC(=O)/C=C/c1cc(OCc2c(F)cccc2Cl)ccc1[N+](=O)[O-] [CU492, (1E,6E)-1-[5-(2-chloro-6-fluorobenzyloxy)-2-nitrophenyl]-7-(4-hydroxyphenyl)hepta-1,6-diene-3,5-dione]
Second: CN(C)C(=O)c1ccccc1/C=C/C(=O)CC(=O)/C=C/c1ccc(O)cc1 [CU479, (1E,6E)-1-[2-(dimethylaminocarbonyl)phenyl]-7-(4-hydroxyphenyl)hepta-1,6-diene-3,5-dione]
The melting point of the first is lower: 180 to 183 °C for the first, 210 to 218 °C for the second.

First: COc1c(O)cccc1/C=C/C(=O)CC(=O)/C=C/c1cccc(O)c1OC [CU363, (1E,6E)-1,7-bis(3-hydroxy-2-methoxyphenyl)hepta-1,6-diene-3,5-dione]
Second: COc1cc(/C=C/C(=O)CC(=O)/C=C/c2cc(O)cc(O)c2)ccc1O [CU093, (1E,6E)-1-(3,5-dihydroxyphenyl)-7-(4-hydroxy-3-methoxyphenyl)hepta-1,6-diene-3,5-dione]
The melting point of the first is lower: 62 to 65 °C for the first, 85 to 90 °C for the second.

First: O=C(/C=C/c1ccc2[nH]ccc2c1)CC(=O)/C=C/c1ccc2[nH]ccc2c1 [CU382, (1E,6E)-1,7-bis(1H-indol-5-yl)hepta-1,6-diene-3,5-dione]
Second: COc1ccc(/C=C/C(=O)CC(=O)/C=C/c2ccc(C)c(C)c2)cc1O [CU058, (1E,6E)-1-(3,4-dimethylphenyl)-7-(3-hydroxy-4-methoxyphenyl)hepta-1,6-diene-3,5-dione]
The melting point of the first is higher: 263 to 266 °C for the first, 150 to 154 °C for the second.

First: O=C(/C=C/c1ccc(O)cc1)CC(=O)/C=C/c1ccc2c(c1)OCO2 [CU215, (1E,6E)-1-(benzo[1,3]dioxol-5-yl)-7-(4-hydroxyphenyl)hepta-1,6-diene-3,5-dione]
Second: COc1ccc(/C=C/C(=O)CC(=O)/C=C/c2cc3ccccc3n2C)cc1O [CU128, (1E,6E)-1-(3-hydroxy-4-methoxyphenyl)-7-(1-methyl-1H-indol-2-yl)hepta-1,6-diene-3,5-dione]
The melting point of the first is higher: 197 to 200 °C for the first, 185 to 193 °C for the second.

Compound `O=C(/C=C/c1cccnc1N1CCN(Cc2ccccc2)CC1)CC(=O)/C=C/c1cccnc1N1CCN(Cc2ccccc2)CC1` [CU385, (1E,6E)-1,7-bis[2-(4-benzylpiperazin-1-yl)pyridin-3-yl]hepta-1,6-diene-3,5-dione] has a melting point of 150 to 155 °C.
